# In paper PMC7280082 (Acta Pharmaceutica Sinica. B, 2019):
# What was measured:
# [1] = system: HIV-1 L100I mutant strain; test: microbe, parasite or virus in culture; assay type: cell-based; conditions: for SI L100I: CC50/EC50; for EC50: Human immunodeficiency virus 1, MT4, read-out: EC50 L100I; for RF L100I: ratio of EC50 (resistant viral strain)/EC50 (wild-type viral strain)
# [2] = system: HIV-1 E138K mutant strain; test: microbe, parasite or virus in culture; assay type: cell-based; conditions: for SI E138K: CC50/EC50; for EC50: Human immunodeficiency virus 1, MT4, read-out: EC50 E138K; for RF E138K: ratio of EC50 (resistant viral strain)/EC50 (wild-type viral strain)
# [3] = system: WT HIV-1 (IIIB); test: microbe, parasite or virus in culture; assay type: cell-based; conditions: for EC50: Human immunodeficiency virus 1, IIIB, MT4, read-out: EC50 IIIB; for SI IIIB: ratio of CC50/EC50
# [4] = system: HIV-1 F227L + V106A double-mutant strain; test: microbe, parasite or virus in culture; assay type: cell-based; conditions: for SI F227L + V106A: CC50/EC50; for EC50: Human immunodeficiency virus 1, MT4, read-out: EC50 F227L + V106A; for RF F227L + V106A: ratio of EC50 (resistant viral strain)/EC50 (wild-type viral strain)
# [5] = system: HIV-1 Y181C mutant strain; test: microbe, parasite or virus in culture; assay type: cell-based; conditions: for SI Y181C: CC50/EC50; for EC50: Human immunodeficiency virus 1, MT4, read-out: EC50 Y181C; for RF Y181C: ratio of EC50 (resistant viral strain)/EC50 (wild-type viral strain)
# [6] = Cytotoxicity in mock-infected MT-4 cell cultures, MTT method; conditions: human, mock-infected MT-4 cells
# [7] = system: HIV-1 Y188L mutant strain; test: microbe, parasite or virus in culture; assay type: cell-based; conditions: for SI Y188L: CC50/EC50; for EC50: Human immunodeficiency virus 1, MT4, read-out: EC50 Y188L; for RF Y188L: ratio of EC50 (resistant viral strain)/EC50 (wild-type viral strain)
# [8] = system: HIV-2 strain (ROD); test: Anti-HIV-2; assay type: cell-based; conditions: for EC50: Human immunodeficiency virus 2, MT4, read-out: EC50 ROD; for SI ROD: ratio of CC50/EC50
# [9] = system: HIV-1 RES056 (K103N + Y181C) double-mutant strain; test: microbe, parasite or virus in culture; assay type: cell-based; conditions: for SI RES056: CC50/EC50; for EC50: Human immunodeficiency virus 1, MT4, read-out: EC50 RES056; for RF RES056: ratio of EC50 (resistant viral strain)/EC50 (wild-type viral strain)
# [10] = system: HIV-1 K103N mutant strain; test: microbe, parasite or virus in culture; assay type: cell-based; conditions: for SI K103N: CC50/EC50; for EC50: Human immunodeficiency virus 1, MT4, read-out: EC50 K103N; for RF K103N: ratio of EC50 (resistant viral strain)/EC50 (wild-type viral strain)
# [11] = target: WT HIV-1 RT (Human immunodeficiency virus type 1 group M subtype B, UniProt P03366); test: Recombinant HIV-1 RT inhibitory assay; assay type: biochemical
Structure (SMILES),SI L100I [1],EC50 [1],RF L100I [1],SI E138K [2],EC50 [2],RF E138K [2],EC50 [3],SI IIIB [3],SI F227L + V106A [4],EC50 [4],RF F227L + V106A [4],SI Y181C [5],EC50 [5],RF Y181C [5],CC50 at 5 days [6],SI Y188L [7],EC50 [7],RF Y188L [7],EC50 [8],SI ROD [8],other results
"Cc1cc(-c2cccc(C#N)c2)cc(C)c1Oc1nc(NC2CCN(Cc3ccc(C(N)=O)cc3)CC2)nc2ccsc12 [Compound 28, 4-((4-((4-((3′-Cyano-3,5-dimethyl-[1,1′-biphenyl]-4-yl)oxy)thieno[3,2-d]pyrimidin-2-yl)amino)piperidin-1-yl)methyl)benzamide]",83,50.2 ± 10.3 nM,2.1,99,41.9 ± 4.56 nM,1.8,23.4 ± 16.9 nM,178,26,157 ± 6.6 nM,6.7,81,51.6 ± 4.32 nM,2.2,4160 ± 1750 nM,57,73.4 ± 5.16 nM,3.1,> 4170 nM,<1,SI RES056 [9]: 10; EC50 [9]: 402 ± 41.9 nM; RF RES056 [9]: 17.2; SI K103N [10]: 208; EC50 [10]: 20 ± 1.2 nM; RF K103N [10]: 0.9; IC50 [11]: 202 ± 20 nM
"Cc1cc(-c2ccc(N(C)C)cc2)cc(C)c1Oc1nc(NC2CCN(Cc3ccc(S(N)(=O)=O)cc3)CC2)nc2ccsc12 [Compound 29, 4-((4-((4-((4'-(Dimethylamino)-3,5-dimethyl-[1,1′-biphenyl]-4-yl)oxy)thieno[3,2-d]pyrimidin-2-yl)amino)piperidin-1-yl)methyl)benzenesulfonamide]",74,247 ± 4.5 nM,3.1,100,183 ± 19.4 nM,2.3,79.2 ± 48.7 nM,232,131,140 ± 1.31 nM,1.8,71,260 ± 30.2 nM,3.3,18300 ± 4500 nM,68,269 ± 30 nM,3.4,> 18400 nM,<1,SI RES056 [9]: 11; EC50 [9]: 1680 ± 388 nM; RF RES056 [9]: 21.2; SI K103N [10]: 189; EC50 [10]: 97.2 ± 3.07 nM; RF K103N [10]: 1.2; IC50 [11]: 477 ± 9 nM
"Cc1cc(-c2ccc(N(C)C)cc2)cc(C)c1Oc1nc(NC2CCN(Cc3ccc(C(N)=O)cc3)CC2)nc2ccsc12 [Compound 30, 4-((4-((4-((4'-(Dimethylamino)-3,5-dimethyl-[1,1′-biphenyl]-4-yl)oxy)thieno[3,2-d]pyrimidin-2-yl)amino)piperidin-1-yl)methyl)benzamide]",21,1120 ± 543 nM,6.3,96,245 ± 173 nM,1.4,176 ± 26.4 nM,134,19,1250 ± 804 nM,7.1,40,585 ± 33.3 nM,3.3,23500 ± 380 nM,42,556 ± 57.4 nM,3.2,> 23500 nM,<1,SI RES056 [9]: < 1; EC50 [9]: > 23500 nM; RF RES056 [9]: > 133; SI K103N [10]: 135; EC50 [10]: 173 ± 46.3 nM; RF K103N [10]: 1.0; IC50 [11]: 473 ± 59 nM
"Cc1cc(-c2cccc(N(C)C)c2)cc(C)c1Oc1nc(NC2CCN(Cc3ccc(S(N)(=O)=O)cc3)CC2)nc2ccsc12 [Compound 31, 4-((4-((4-((3'-(Dimethylamino)-3,5-dimethyl-[1,1′-biphenyl]-4-yl)oxy)thieno[3,2-d]pyrimidin-2-yl)amino)piperidin-1-yl)methyl)benzenesulfonamide]",46,2400 ± 256 nM,2.7,112,979 ± 185 nM,1.1,882 ± 323 nM,125,51,2160 ± 298 nM,2.4,48,2300 ± 413 nM,2.6,110000 ± 1460 nM,55,1990 ± 46.5 nM,2.3,> 110000 nM,<1,SI RES056 [9]: 4; EC50 [9]: 29600 nM; RF RES056 [9]: 33.5; SI K103N [10]: 161; EC50 [10]: 685 ± 0.21 nM; RF K103N [10]: 0.8; IC50 [11]: 1680 ± 56 nM
"Cc1cc(-c2cccc(N(C)C)c2)cc(C)c1Oc1nc(NC2CCN(Cc3ccc(C(N)=O)cc3)CC2)nc2ccsc12 [Compound 32, 4-((4-((4-((3'-(Dimethylamino)-3,5-dimethyl-[1,1′-biphenyl]-4-yl)oxy)thieno[3,2-d]pyrimidin-2-yl)amino)piperidin-1-yl)methyl)benzamide]",17,1140 ± 99.2 nM,6.9,100,198 ± 34.2 nM,1.2,163 ± 57.8 nM,121,25,783 ± 196 nM,4.8,32,626 ± 39.2 nM,3.8,19800 ± 4470 nM,36,552 ± 45.6 nM,3.4,4660 ± 824 nM,4,SI RES056 [9]: 5; EC50 [9]: 4300 ± 1540 nM; RF RES056 [9]: 26.2; SI K103N [10]: 93; EC50 [10]: 212 ± 7.34 nM; RF K103N [10]: 1.3; IC50 [11]: 271 ± 16 nM
